According to PMC6753678, “Fueling Open Innovation for Malaria Transmission-Blocking Drugs: Hundreds of Molecules Targeting Early Parasite Mosquito Stages” (Frontiers in Microbiology, 2019):
Where two headings read alike, the source gives them in different places.

Columns and labels:
[1] = system: P. falciparum late stage (stages IV-V) gametocytes; set-up: method as in Almela et al 2016; conditions: ref Almela et al 2016, read-out: Pf GCT ATP IC50, cited from earlier work
[2] = system: HepG2 cells; assay: HepG2 cytotoxicity assay
In short: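 Percent inhibition derived from fluorescent viability readout, normalised to DMSO (negative) and 50 μM doxorubicin (positive). Compound incubation lasted 48 h at 37°C, 5% CO2, with 2,500 HepG2 cells/well in MEM plus 10% FBS and 1% NEAA.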

[3] = system: HepG2 cells; conditions: ref Almela et al 2016, cited from earlier work; for HepG2 cytoxicity (Pf GCT ATP screen): HepG2 value reported with Pf GCT ATP screen
[4] = system: P. falciparum late stage (stages IV-V) gametocytes; assay: P. falciparum late stage gametocyte ATP depletion assay (Pf GC-ATP); conditions: 1: YES, 0: NO
[5] = P. falciparum late stage gametocyte ATP assay, TCAMS screen
[6] = HepG2 cytotoxicity unified across screens, >25 set to 25.00
[7] = reported with the Pf GCT ATP screen
[8] = >10-fold selectivity over cytotoxicity
[9] = P. falciparum late stage gametocyte ATP assay
[10] = unified HepG2 value across the three screens
[11] = HepG2 data listed with Pf GCT ATP screen
[12] = HepG2 cytotoxicity unified across screens, bounds (>) given as plain numbers

Row | SMILES | IC50 [1, 5] [nM] | Unified cytotox [2, 6] [µM] | HepG2 cytoxicity [3, 7] [µM] | Is compound selective in assay? Pf GC-ATP active? [4, 8] | Is compound selective in assay? Pf GC-ATP active? [4] | further results
1 | COc1cccc(Nc2c(C(N)=O)cnc3ccc(-c4ccc([S+](C)[O-])cc4)cc23)c1.O=C(O)C(F)(F)F (stereo not shown) [TCMDC-135184] | 1430 | 25.00 | >25 | 1 (1: YES) |  | 
2 | COc1cc2c(c(Cl)c1OC)CCN(C(=O)C(F)(F)F)CC2c1ccccc1 (stereo not shown) [TCMDC-132071] | 1950 | 25.00 | >25 | 1 (1: YES) |  | 
3 | CCNC1=NC2=C(CC(C(C)(C)C)CC2)C2(CCC(C(C)(C)C)CC2)S1.Cl (stereo not shown) [TCMDC-131288] |  |  |  |  | 0 (0: NO) | IC50 [1, 9]: 3000 nM; Unified cytotox [2, 10]: 14.30 µM; HepG2 cytoxicity [3, 11]: 14.3 µM
4 | CC(Cc1ccc(CNC(=O)NCc2ccc(CC(C)NCCc3cccc(Cl)c3)cc2)cc1)NCCc1cccc(Cl)c1 (stereo not shown) [TCMDC-139648] |  |  |  |  | 0 (0: NO) | IC50 ([1]; TCAMS screen comparison): 610 nM; Unified cytotox ([2]; HepG2 cytotoxicity unified across the three screens): 4.18 µM; HepG2 cytoxicity ([3]; value reported with the Pf GCT ATP screen): 4.18 µM
5 | CS(=O)(=O)c1cccc(-c2cnc3[nH]cc(-c4cccc(CCN)c4)c3c2)c1 [TCMDC-136307] | 470 | 25.00 | >25 | 1 (1: YES) |  | 
6 | O=[N+]([O-])c1ccc(C=NNc2nc(Nc3ccccc3)nc(Nc3ccccc3)n2)o1 [TCMDC-125802] |  |  |  |  | 1 (1: YES) | IC50 [1, 9]: 1310 nM; Unified cytotox [2, 10]: 14.82 µM; HepG2 cytoxicity [3, 11]: 14.82 µM
7 | CC(C)CCNC(=N)Nc1ccc(OCCCCCOc2ccc(NC(=N)NCCC(C)C)cc2)cc1 [TCMDC-137614] | 510 | 25.00 | >25 | 1 (1: YES) |  | 
8 | CCCCOc1ccc(C(=O)C(CCC(CNC(C)(C)C)C(=O)c2ccc(OCCCC)cc2)CNC(C)(C)C)cc1.Cl (stereo not shown) [TCMDC-124120] |  |  |  |  | 1 (1: YES) | IC50 ([1]; TCAMS library screen): 300 nM; Unified cytotox [2, 12]: 3.10 µM; HepG2 cytoxicity (Pf GCT ATP screen) [3]: 3.1 µM
9 | COc1ccc2nc3cc(Cl)ccc3c(NCCCCCCNc3c4ccc(Cl)cc4nc4ccc(OC)cc34)c2c1.Cl.Cl.Cl.Cl [TCMDC-137503] | 50 | 25.00 | >25 | 1 (1: YES) |  | 
10 | Fc1ccc2[nH]c(-c3ccc(-c4ccc(CNCCN5CCNCC5)cc4)s3)nc2c1.O=C(O)C(F)(F)F [TCMDC-132869] | 530 | 25.00 | >25 | 1 (1: YES) |  | 
11 | CC(C)CNCc1cccc(-c2ccc(CN(CCCN3CCN(C)CC3)C(=O)CCC3CCCC3)cc2)c1.O=C(O)C(F)(F)F [TCMDC-140558] | 700 | 25.00 | >25 | 1 (1: YES) |  | 
12 | COc1ccc(CCNc2nc(NCc3ccccc3)c3cc(OC)c(OC)cc3n2)cc1OC [TCMDC-132017] |  |  |  |  | 0 (0: NO) | IC50 [1, 9]: 5600 nM; Unified cytotox [2, 10]: 4.58 µM; HepG2 cytoxicity [3, 11]: 4.58 µM
13 | Cc1cccnc1Nc1nc(-c2ccccn2)cs1 [TCMDC-125846] |  |  |  |  | 1 (1: YES) | IC50 [1, 9]: 100 nM; Unified cytotox [2, 10]: 3.02 µM; HepG2 cytoxicity [3, 11]: 3.02 µM
14 | Cc1ccc(-n2c(C)nc3c(Nc4ccc(-c5ccncc5)cc4)ncnc32)c(C)c1 [TCMDC-136289] | 530 | 25.00 | >25 | 1 (1: YES) |  | 
15 | CC(C)CNCc1cccc(-c2cccc(CNCCCN3CCN(C)CC3)c2)c1.O=C(O)C(F)(F)F [TCMDC-140483] | 1560 | 25.00 | >25 | 1 (1: YES) |  | 
16 | COc1ccc(C[C@H](N)C(=O)N[C@H]2[C@@H](O)[C@H](n3cnc4c(N(C)C)ncnc43)O[C@@H]2CO)cc1.Cl [TCMDC-123927] |  |  |  |  | 0 (0: NO) | IC50 ([1]; TCAMS library screen): 650 nM; Unified cytotox [2, 12]: 2.69 µM; HepG2 cytoxicity (Pf GCT ATP screen) [3]: 2.69 µM
17 | O=C(Nc1cccc(-c2cccc(-c3ccc(F)cc3)n2)c1)c1ccc([N+](=O)[O-])o1 [TCMDC-124807] |  |  |  |  | 0 (0: NO) | IC50 [1, 9]: 1530 nM; Unified cytotox [2, 10]: 6.94 µM; HepG2 cytoxicity [3, 11]: 6.94 µM
18 | CCCCCCCn1c(=N)n(CC(O)c2ccc(Cl)c(Cl)c2)c2ccccc21.Cl (stereo not shown) [TCMDC-124065] |  |  |  |  | 0 (0: NO) | IC50 ([1]; TCAMS library screen): 2020 nM; Unified cytotox [2, 12]: 6.00 µM; HepG2 cytoxicity (Pf GCT ATP screen) [3]: 6 µM

Row | SMILES | IC50 [1, 5] [nM] | Unified cytotox [2, 6] [µM] | HepG2 cytoxicity [3, 7] [µM] | Is compound selective in assay? Pf GC-ATP active? [4, 8] | Is compound selective in assay? Pf GC-ATP active? [4] | further results
19 | Oc1c(C(Nc2nc3ccccc3s2)c2ccc(OC(F)F)cc2)ccc2cccnc12 (stereo not shown) [TCMDC-124379] |  |  |  |  | 1 (1: YES) | IC50 ([1]; TCAMS library screen): 440 nM; Unified cytotox [2, 12]: 24.10 µM; HepG2 cytoxicity (Pf GCT ATP screen) [3]: 24.1 µM
20 | CCn1ncc2c(NC3CCOCC3)c(CNC(=O)c3ccnn3C)c(C)nc21 [TCMDC-136560] | 1640 | 25.00 | >25 | 1 (1: YES) |  | 
21 | COc1cc2nc(NCC3CCN(c4nc(N)c5cc(OC)c(OC)cc5n4)CC3)nc(N)c2cc1OC [TCMDC-138723] | 1420 | 25.00 | >25 | 1 (1: YES) |  | 
22 | Cl.N=c1n(CCN2CCCCC2)c2ccccc2n1CC(O)c1ccc(Cl)c(Cl)c1 (stereo not shown) [TCMDC-124064] |  |  |  |  | 0 (0: NO) | IC50 ([1]; TCAMS library screen): 3270 nM; Unified cytotox [2, 12]: 5.20 µM; HepG2 cytoxicity (Pf GCT ATP screen) [3]: 5.2 µM
23 | CCN(CC)Cc1cc(Nc2c3ccc(Cl)cc3nc3cccc(OC)c23)ccc1O.Cl [TCMDC-139222] | 1000 | 25.00 | >25 | 1 (1: YES) |  | 
24 | Cl.Ic1cc(CNC2CCCCC2)ccc1OCc1cccc(COc2ccc(CNC3CCCCC3)cc2I)c1 [TCMDC-137261] | 330 | 25.00 | >25 | 1 (1: YES) |  | 
25 | CCN(CC)/C(=N\CCCCCC/N=C(\NC(=N)c1ccc(Cl)cc1)N(CC)CC)NC(=N)c1ccc(Cl)cc1 [TCMDC-131806] |  |  |  |  | 1 (1: YES) | IC50 [1, 9]: 840 nM; Unified cytotox [2, 10]: 43.60 µM; HepG2 cytoxicity [3, 11]: 43.6 µM
26 | CC(C)CCNC(=N)Nc1ccc(OCCCOc2ccc(NC(=N)NCCC(C)C)cc2)cc1 [TCMDC-137615] | 290 | 25.00 | >25 | 1 (1: YES) |  | 
27 | Cl.N=c1n(Cc2ccc(Cl)cc2)c2ccccc2n1CC(O)c1ccc(Cl)c(Cl)c1 (stereo not shown) [TCMDC-123813] |  |  |  |  | 1 (1: YES) | IC50 ([1]; TCAMS library screen): 360 nM; Unified cytotox [2, 12]: 6.50 µM; HepG2 cytoxicity (Pf GCT ATP screen) [3]: 6.5 µM
28 | COc1cccc(CCNCCCCCCNCCc2ccc(Cl)cc2)c1.Cl [TCMDC-131284] |  |  |  |  | 1 (1: YES) | IC50 [1, 9]: 530 nM; Unified cytotox [2, 10]: 6.10 µM; HepG2 cytoxicity [3, 11]: 6.1 µM
29 | SC(=Nc1ccc2c(c1)OCCO2)NN=Cc1ccccn1 [TCMDC-132009] |  |  |  |  | 0 (0: NO) | IC50 [1, 9]: 830 nM; Unified cytotox [2, 10]: 3.28 µM; HepG2 cytoxicity [3, 11]: 3.28 µM
30 | N=C(N)Nc1nc(-c2ccc(NC(=O)Nc3cccc(-c4csc(NC(=N)N)n4)c3)cc2)cs1 [TCMDC-139559] | 1430 | 25.00 | >25 | 1 (1: YES) |  | 
31 | CCCCCOc1ccc(C(O)C(CCC(CN2CCCCCC2)C(O)c2ccc(OCCCCC)cc2)CN2CCCCCC2)cc1.Cl (stereo not shown) [TCMDC-124174] |  |  |  |  | 0 (0: NO) | IC50 ([1]; TCAMS library screen): 1200 nM; Unified cytotox [2, 12]: 6.80 µM; HepG2 cytoxicity (Pf GCT ATP screen) [3]: 6.8 µM
32 | COc1ccccc1-c1cccc(-c2cccc(NC(=O)c3ccc([N+](=O)[O-])o3)c2)n1 [TCMDC-124800] |  |  |  |  | 0 (0: NO) | IC50 ([1]; TCAMS library screen): 1660 nM; Unified cytotox [2, 12]: 11.47 µM; HepG2 cytoxicity (Pf GCT ATP screen) [3]: 11.47 µM
33 | CCN(CC)CCCOC(=O)c1ccc2c(c1)-c1ccc(C(=O)OCCCN(CC)CC)c3cccc-2c13.Cl [TCMDC-125491] |  |  |  |  | 1 (1: YES) | IC50 [1, 9]: 140 nM; Unified cytotox [2, 10]: 20.00 µM; HepG2 cytoxicity [3, 11]: 20 µM
34 | Cc1ccc(-n2nc(-c3ccccc3)c3cc(C(=O)NCCN)sc32)cc1 [TCMDC-124776] |  |  |  |  | 0 (0: NO) | IC50 ([1]; TCAMS library screen): 1110 nM; Unified cytotox [2, 12]: 7.83 µM; HepG2 cytoxicity (Pf GCT ATP screen) [3]: 7.83 µM
35 | CCN(CC)/C(=N/C(=N)Nc1ccc(Cl)cc1)NCCCCCCCCN/C(=N\C(=N)Nc1ccc(Cl)cc1)N(CC)CC [TCMDC-131812] |  |  |  |  | 1 (1: YES) | IC50 [1, 9]: 1030 nM; HepG2 cytoxicity [3, 11]: >25 µM
